Among the data in paper PMC3123319, “Insights into the Regulatory Characteristics of the Mycobacterial Dephosphocoenzyme A Kinase: Implications for the Universal CoA Biosynthesis Pathway” (PLoS ONE, 2011) are Ki values, retold here.

The experiment has as its target T1, dephosphocoenzyme A kinase (CoaE) (Mycobacterium tuberculosis, UniProt P9WPA3).
T1 sequence (P9WPA3 1-407): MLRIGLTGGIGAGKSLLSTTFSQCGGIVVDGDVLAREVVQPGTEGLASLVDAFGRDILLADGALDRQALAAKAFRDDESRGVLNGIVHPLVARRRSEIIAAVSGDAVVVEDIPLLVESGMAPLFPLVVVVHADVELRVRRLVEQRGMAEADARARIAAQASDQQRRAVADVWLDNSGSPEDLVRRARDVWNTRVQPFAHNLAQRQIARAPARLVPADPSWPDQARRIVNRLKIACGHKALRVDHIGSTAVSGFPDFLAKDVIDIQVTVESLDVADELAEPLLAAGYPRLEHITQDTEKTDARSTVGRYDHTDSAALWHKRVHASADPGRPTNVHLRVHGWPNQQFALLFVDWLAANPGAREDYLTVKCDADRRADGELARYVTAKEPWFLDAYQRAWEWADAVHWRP
Briefly: coupled PK-LDH spectrophotometric assay, Dixon plot; supported by tryptophan fluorescence quenching, SEC and limited proteolysis. In kind it is biochemical.

With `Nc1ccn([C@@H]2O[C@H](COP(=O)(O)OP(=O)(O)OP(=O)(O)O)[C@@H](O)[C@H]2O)c(=O)n1` [CTP], the affinity corresponds to a Ki of 34 µM.
